Earlier results in US20080175908A1, “TABLET-IN-TABLET COMPOSITIONS” (Wyeth, priority 2007, published 2008).

What was measured:
uterine response = details: preclinical models of uterine stimulation
[1] = system: ovariectomized rat model of osteopenia
[2] = system: MCF-7 cell line (human breast cancer cell line)

Cc1c(-c2ccc(O)cc2)n(Cc2ccc(OCCN3CCCCCC3)cc2)c2ccc(O)cc12 [bazedoxifene acetate, 1-[4-(2-azepan-1-yl-ethoxy)-benzyl]-2-(4-hydroxy-phenyl)-3-methyl-1H-indol-5-ol acetic acid]
stimulation of uterine response (uterine response): little or no stimulation of uterine response | prevention of bone loss [1]: estrogen agonist-like effect in preventing bone loss | reduction of cholesterol [1]: reducing cholesterol | estrogen antagonist behaviour [2]: behaves as an estrogen antagonist
